# Results: ChEMBL document CHEMBL3638726, “Substituted indole compounds having NOS inhibitory activity” (2013)
# Biological target: T1, Nitric oxide synthase 3 (Homo sapiens, UniProt P29474)
# T1 sequence (P29474 whole entry): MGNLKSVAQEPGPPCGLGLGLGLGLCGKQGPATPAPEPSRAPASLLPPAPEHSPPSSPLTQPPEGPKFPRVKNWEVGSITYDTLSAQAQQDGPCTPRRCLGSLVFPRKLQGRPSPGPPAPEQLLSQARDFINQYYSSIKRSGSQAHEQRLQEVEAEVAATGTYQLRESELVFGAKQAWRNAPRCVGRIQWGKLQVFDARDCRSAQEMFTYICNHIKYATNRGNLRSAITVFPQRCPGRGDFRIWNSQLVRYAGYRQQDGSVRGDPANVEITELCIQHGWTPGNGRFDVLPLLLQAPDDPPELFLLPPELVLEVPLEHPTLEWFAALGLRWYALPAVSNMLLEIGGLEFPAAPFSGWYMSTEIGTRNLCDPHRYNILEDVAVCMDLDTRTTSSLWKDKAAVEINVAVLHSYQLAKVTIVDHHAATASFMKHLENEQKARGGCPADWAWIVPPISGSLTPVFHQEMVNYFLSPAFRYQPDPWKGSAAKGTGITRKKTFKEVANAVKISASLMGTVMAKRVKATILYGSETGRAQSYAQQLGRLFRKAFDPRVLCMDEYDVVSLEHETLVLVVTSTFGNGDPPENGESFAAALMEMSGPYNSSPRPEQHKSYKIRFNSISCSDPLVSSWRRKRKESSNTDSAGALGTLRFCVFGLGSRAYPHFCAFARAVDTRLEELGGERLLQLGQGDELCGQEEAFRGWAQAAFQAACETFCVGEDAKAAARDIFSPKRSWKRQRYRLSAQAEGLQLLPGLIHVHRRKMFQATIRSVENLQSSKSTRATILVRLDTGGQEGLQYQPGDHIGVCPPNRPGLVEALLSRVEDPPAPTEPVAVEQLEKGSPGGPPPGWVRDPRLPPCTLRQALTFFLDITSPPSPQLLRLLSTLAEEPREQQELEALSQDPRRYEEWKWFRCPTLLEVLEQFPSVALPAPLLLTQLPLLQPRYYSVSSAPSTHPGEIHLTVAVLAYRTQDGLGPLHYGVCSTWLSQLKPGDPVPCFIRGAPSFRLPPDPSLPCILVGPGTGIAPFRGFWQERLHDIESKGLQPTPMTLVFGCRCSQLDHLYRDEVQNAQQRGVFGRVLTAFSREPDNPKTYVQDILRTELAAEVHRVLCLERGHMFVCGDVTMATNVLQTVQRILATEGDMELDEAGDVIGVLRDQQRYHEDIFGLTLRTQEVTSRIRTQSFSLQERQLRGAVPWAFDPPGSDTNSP
# Assay: Enzyme Assay: Enzyme assay using recombinant human inducible NOS (iNOS), human endothelial constitutive NOS (eNOS) or human neuronal constitutive NOS (nNOS).
row,IC50 [nM],SMILES
1,40100,CN1CC[C@@H](c2c[nH]c3ccc(/N=C(\N)c4cccs4)cc23)[C@H](F)C1

# Biological target: 5-hydroxytryptamine 1D receptor (Bos taurus, UniProt Q8MI13)
# Sequence (Q8MI13 whole entry): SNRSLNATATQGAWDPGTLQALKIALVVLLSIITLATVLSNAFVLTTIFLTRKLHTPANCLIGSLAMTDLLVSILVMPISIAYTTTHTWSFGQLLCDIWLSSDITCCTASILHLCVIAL
# Assay: Binding Assay: 5-HT1D binding assays (agonist radioligand)were performed using bovine caudate membranes according to the methods of Heuring and Peroutka (J. Neurosci 1987, 7: 894-903). 5-HT1B (rat cerebral cortex) binding assays (agonist radioligand) were performed according to the method of Hoyer et. al. (Eur. J. Pharmacol. […], 118: 1-12).
# Format: tissue-based
row,SMILES,IC50 [nM]
1,CN1CC=C(c2c[nH]c3ccc(NC(=S)NC(=O)c4ccccc4)cc23)CC1,56
2,CN1CC=C(c2c[nH]c3ccc(CNC(=N)c4cccs4)cc23)CC1,220
3,CN1CC=C(c2c[nH]c3ccc(NC(=N)c4cccs4)cc23)CC1,51
4,CN1CC=C(c2c[nH]c3ccc(NC(=N)c4ccco4)cc23)CC1,50
5,CN1CCC(c2c[nH]c3ccc(NC(=N)c4cccs4)cc23)CC1,570
6,CCSC(=N)Nc1ccc2[nH]cc(C3=CCN(C)CC3)c2c1,48
7,CN(C)CCc1c[nH]c2ccc(CNC(=N)c3cccs3)cc12,290
8,CCN1CCC(c2c[nH]c3ccc(NC(=N)c4cccs4)cc23)CC1,680
9,CN1CCC[C@@H]1Cc1c[nH]c2ccc(NC(=N)c3cccs3)cc12,130
10,CN1CCC[C@H]1Cc1c[nH]c2ccc(NC(=N)c3cccs3)cc12,1100
11,CN1CCC(c2c[nH]c3ccc(NC(=N)c4cccs4)cc23)C1 (stereo not drawn),350
12,CN1CCC(c2c[nH]c3ccc(/N=C(\N)c4ccco4)cc23)C1 (stereo not drawn),560
